PMC7801313, “Effect of lurbinectedin on the QTc interval in patients with advanced solid tumors: an exposure–response analysis” (Cancer Chemotherapy and Pharmacology, 2020)
Several values for one entry are separate records, joined by “and”; a condition that tells them apart may be missing. Identical values can stand only once. Like-named read-outs stand apart in the source and are kept apart here.

What was measured:
[1] = test system: patients with advanced solid tumors; test: QT evaluation study, by time point ECG analysis; format: in vivo, human
Protocol: This was a QT evaluation study (EudraCT No. 2015-000206-18; ClinicalTrials.gov: NCT02451007) performed at a subset of sites participating in a multicenter, open-label, exploratory, phase II basket clinical trial (EudraCT No: 2014-003773-42; ClinicaTrials.gov: NCT02454972) conducted in patients with selected advanced solid tumors. The schedule used in this QT evaluation study was that evaluated in the basket trial: lurbinectedin 3.2 mg/m^2 given as a 1-h i.v. infusion q3wk.
A screening ECG was collected between day -10 and day -2 before the first lurbinectedin infusion (day 1 of cycle 1) and transmitted to the central ECG laboratory to confirm the patient’s eligibility.
On day 1 of cycle 1, two baseline triplicate ECGs (three 10-s digital ECGs in close succession) were collected: one before administration of prophylactic medication or pre-dose 1, and the other after antiemetic prophylactic medication (palonosetron 0.25 mg i.v.) and before the start of the lurbinectedin infusion or pre-dose 2 (also on cycle 2).
In cycle 1 and cycle 2, the following triplicate ECGs were collected 5–10 min before their time-matched PK time points: 5 min before end of the lurbinectedin infusion (EOI), 30 min, 1, 3, 24, 72 (only on cycle 1), and 168 h after EOI.
A 12-lead automated digital ECG recorder [Mortara Instrument (Milwaukee, WI, USA) ELI-150 ECG 12-lead digital recorder] was provided by a third-party central ECG laboratory (eResearchTechnology, Inc., Philadelphia, PA, USA). Analysis and reporting of ECG data were performed by a limited number of skilled readers who were blinded to treatment time point. ECG review of a particular patient was performed by a single reader. Interval duration measurements were collected using computer-assisted caliper placements on three consecutive beats. A cardiologist then verified the interval durations and performed the morphology analysis, noting any T-U wave complex compatible with an effect on cardiac repolarization. The ECG analysis was conducted in Lead II or in Lead V5 if Lead II was not analyzable. If Lead V5 was not analyzable, then Lead V2 was used, and followed by the most appropriate lead if necessary. The mean of triplicate ECG measures at each time point for each patient was used for analyses.
Fridericia’s formula [6] is currently considered the most accurate method for correcting the effect of HR on QT interval [7], and was used as the main method for HR correction for QT (QTcF). Nevertheless, graphical inspection of QTcF and QT corrected by Bazett’s formula (QTcB) versus RR interval plots and statistical comparison of resulting squared linear regression slopes (R^2) was performed.
The primary endpoint was the change in QTc corrected by the Fridericia’s formula (ΔQTcF) between each scheduled post-baseline ECG time point and baseline at cycle 1. A patient was considered evaluable for the primary endpoint if he/she had baseline and one or more post-baseline ECG assessments.
Secondary endpoints were the ΔQTcF/lurbinectedin plasma concentration relationship, and change in other ECG parameters (i.e., HR, QRS, and PR).
The primary comparison was ΔQTcF at each ECG time point. A non-inferiority criterion of 20 ms was used to establish the absence of post-baseline QTc prolongation when compared to baseline. An analysis of variance model with mixed effects was fitted, with ΔQTc data as the dependent variable and ECG time point as the fixed effects, and patient as random effect.
Using the estimated least square means (LSM) and intra-patient standard deviation (Std) obtained from this model, a two-sided 90% confidence interval (CI) was calculated for each LSM ΔQTc. Non-inferiority was to be concluded if the upper bound (UB) of the one-sided 95% CI fell below 20 ms at each ECG time point.

[2] = cited from earlier work
patients = test system: patients; parameters: method as in PMID 24563480; details: cited from earlier work
[3] = test system: patients with advanced solid tumors; test: cardiac adverse events in the QT evaluation study; format: in vivo, human
Protocol: Cardiac adverse events (AEs) observed in the period of this QT evaluation study were evaluated and graded according to the National Cancer Institute Common Terminology Criteria for Adverse Events (NCI-CTCAE), v.4 and coded using the Medical Dictionary for Regulatory Activities (MedDRA) v.16.0. Laboratory results of particular relevance (i.e., changes in albumin, calcium, potassium, or magnesium) were graded according to the NCI-CTCAE v.4.

cytochrome P450 (CYP) 3A = test system: cytochrome P450 (CYP) 3A; parameters: method as in data on file; details: in vitro studies; ref data on file; cited from earlier work
[4] = parameters: method as in data on file; details: ref data on file; cited from earlier work
telemetered dogs = test system: telemetered dogs; parameters: method as in data on file; details: single i.v. bolus at maximum tolerated dose, ref data on file; cited from earlier work
[5] = Cycle 1 Day 1, 30 min after end of infusion
[6] = Cycle 1 Day 1, 1 h after end of infusion
[7] = Cycle 1 Day 1, 3 h after end of infusion
[8] = Cycle 1 Day 2, 24 h after end of infusion
[9] = Cycle 1 Day 4, 72 h after end of infusion
[10] = Cycle 1 Day 8, 168 h after end of infusion
[11] = Cycle 2 Day 1, 5 min before end of infusion
[12] = Cycle 2 Day 1, 5 min before start of infusion
[13] = Cycle 2 Day 1, 30 min after end of infusion
[14] = Cycle 2 Day 1, 1 h after end of infusion
[15] = Cycle 2 Day 8, 168 h after end of infusion
[16] = all time points other than 3 h after end of cycle 2 infusion

COc1ccc2[nH]c3c(c2c1)CCN[C@]31CS[C@@H]2c3c(OC(C)=O)c(C)c4c(c3[C@H](COC1=O)N1[C@@H]2[C@H]2c3c(cc(C)c(OC)c3O)C[C@@H]([C@@H]1O)N2C)OCO4 [lurbinectedin, Lurbinectedin]
effect on cardiac repolarization ([1]; 3.2 mg/m^2 1-h i.v. q3wk): not associated with a clinically relevant effect on cardiac repolarization | values above reference limits QTcF > 480 ms and ΔQTcF > 60 ms ([1]; 39 evaluable patients): No single value was above the reference limit values of concern | ΔQTcF, mean (Stdv) ([1]; Cycle 1, 0.92 h after start of infusion): 3.33 (8.46) ms | ΔQTcF, mean (Stdv) ([1]; Cycle 1, 1.5 h after start of infusion): 1.76 (8.25) ms | ΔQTcF, mean (Stdv) ([1]; Cycle 1, 2 h after start of infusion): 1.84 (10.88) ms | highest mean change from baseline in HR (± Std) ([1]; Cycle 1, 3 h after end of infusion): 16.7 (± 11.0) bpm and 16.7 bpm | ΔQTcF, mean (Stdv) ([1]; Cycle 1, 4 h after start of infusion): 1.33 (10.39) ms | ΔQTcF UB90%CI ([1]; Cycle 1 Day 1, 5 min before end of infusion): 5.51 ms | ΔQTcF LSmean ([1]; Cycle 1 Day 1, 5 min before end of infusion, 3.2 mg/m^2 1-h i.v.): 3.32 ms | ΔQTcF LSmean [1, 5]: 1.76 ms | ΔQTcF UB90%CI [1, 5]: 3.93 ms | ΔQTcF LSmean [1, 6]: 1.84 ms | ΔQTcF UB90%CI [1, 6]: 4.69 ms | ΔQTcF LSmean [1, 7]: 1.32 ms | ΔQTcF UB90%CI [1, 7]: 4.05 ms | ΔQTcF LSmean [1, 8]: -8.24 ms | ΔQTcF UB90%CI [1, 8]: -5.26 ms | ΔQTcF LSmean [1, 9]: -12.38 ms | ΔQTcF UB90%CI [1, 9]: -9.39 ms | ΔQTcF LSmean [1, 10]: -5.2 ms | ΔQTcF UB90%CI [1, 10]: -2.41 ms | ΔQTcF, mean (Stdv) ([1]; Cycle 2, 0.92 h after start of infusion): 1.54 ms and 1.54 (12.36) ms | ΔQTcF, mean (Stdv) ([1]; Cycle 2, 1.5 h after start of infusion): 1.99 (12.06) ms | ΔQTcF, mean (Stdv) ([1]; Cycle 2, 2 h after start of infusion): 1.92 (13.65) ms | ΔQTcF, mean (Stdv) ([1]; Cycle 2, 4 h after start of infusion (largest mean)): 4.69 ms and 4.69 (15.28) ms | ΔQTcF LSmean [1, 11]: 2.25 ms | ΔQTcF UB90%CI [1, 11]: 5.68 ms | ΔQTcF LSmean [1, 12]: -0.46 ms | ΔQTcF UB90%CI [1, 12]: 2.35 ms | ΔQTcF LSmean [1, 13]: 2.32 ms | ΔQTcF UB90%CI [1, 13]: 5.66 ms | ΔQTcF LSmean [1, 14]: 2.73 ms | ΔQTcF UB90%CI [1, 14]: 6.54 ms | ΔQTcF UB90%CI ([1]; Cycle 2 Day 1, 3 h after end of infusion (largest UB)): 9.6 ms and 9.60 ms | ΔQTcF LSmean ([1]; Cycle 2 Day 1, 3 h after end of infusion (maximum)): 5.39 ms | ΔQTcF LSmean [1, 15]: -4.22 ms | ΔQTcF UB90%CI [1, 15]: -1.08 ms | variation between lowest and largest mean change from baseline of PR interval ([1]; all time points and cycles): 7.8 ms | variation between lowest and largest mean change from baseline of QRS duration ([1]; all time points and cycles): 2.5 ms | LSM ΔQTcF at other time points [1, 16]: ≤ 3.3 ms | UB of the 90% CI of ΔQTcF at other time points [1, 16]: < 6.6 ms | Umax (time when the largest mean ΔQTcF is reached) ([1]; cycle 1): 0.92 h | patients with ΔHR > 25% ([1]; cycle 1): 44% | difference between Umax and Tmax ([1]; cycle 2): 3.08 h | patients with ΔHR > 25% ([1]; cycle 2): 49% | highest mean change from baseline in HR (± Std) ([1]; cycle 2, 3 h after end of infusion): 17.5 (± 11.7) bpm and 17.5 bpm | effects on atrioventricular conduction or depolarization (mean changes in PR and QRS intervals) ([1]; in vivo): No significant effects | population estimate for total plasma clearance ([2]; 1-h i.v. infusion, cancer patients): 11.2 L/h | extraction ratio [2]: 0.19 | inter-individual variability of all PK parameters [2]: 20.9 to 51.2% | population estimate of apparent volume at steady state [2]: 438 L and 438.4 L | reduction of clearance ([2]; co-administration of CYP3A inhibitors): 30% | blood CL ([2]; corresponding to plasma clearance): ~ 17 L/h | reduction of clearance ([2]; high C-reactive protein): 20% | reduction of clearance ([2]; high α-1-acid glycoprotein): 28% | reduction of clearance ([2]; low albumin): 20% | most common limiting toxicity (patients): myelosuppression, particularly neutropenia | cardiac safety findings ([3]; QT evaluation study period): No relevant cardiac safety findings | adverse events suggestive of proarrhythmic potential ([3]; in vivo): No adverse events suggestive of proarrythmic potential | role of metabolism by CYP3A in clearance (cytochrome P450 (CYP) 3A): major clearance mechanism | protein binding [4]: highly protein-bound | cardiovascular changes (telemetered dogs): mild decreases in blood pressure and increased heart rate | effects on lead II ECG variables (PR, QT, QTcF, QTcV, QRS), ECG gross morphology, cardiac rhythm (telemetered dogs): No effects were observed
